Measurements: patent US9540325B2, “N1-cyclic amine-N5-substituted phenyl biguanide derivatives, methods of preparing the same and pharmaceutical composition comprising the same” (Immunomet Therapeutics, Inc., priority 2011, dated 2017)

Tests used:
[1] = Solubility in water of hydrochloride and acetate salts; assay type: physicochemical; details: content 5 mg/1 ml distilled water, room temperature
Protocol: The solubilities in water of the hydrochlorides prepared in Examples 26, 27, 32, 33, 48, 49, 53 and 54, and the solubilities in water of the acetates prepared in Examples 70 to 77, were compared.
The experimental conditions and methods are described, as follows.
1) 1 ml of distilled water is added to a container including 5 mg of salt at room temperature.
2) The resulting mixture is stirred for 10 minutes, and then kept at room temperature for 1 hour.
3) Undissolved residual salt is recovered and weighed.
4) The ratio of the amount of the recovered salt and the amount of the dissolved salt is calculated.
5) Operations 1) to 4) are repeatedly performed with increasing amount (i.e., 10, 15, 20, 25 and 30 mg) of salt.
The experimental procedures were performed for each of the hydrochlorides of Examples 26, 27, 32, 33, 48, 49, 53 and 54 and the acetates of Examples 70 to 77. The comparative solubilities obtained using the hydrochlorides of Examples 26, 27, 32, 33, 48, 49, 53 and 54 and the acetates of Examples 70 to 77 are listed in the following Table 1.

Snail = assay: EMT inhibitory effect by inhibition of Snail expression (immunoblotting) in MCF7 cells; assay type: cell-based, human; details: MCF7, 48 hours, untreated control = 100%
Protocol: Cells undergoing EMT owing to various cytokines and growth factors can acquire motility and thus move a distance to form tumors in new tissues. Therefore, the metastasis of cancer cells can be inhibited by controlling expression of EMT-related transcription factors to hinder EMT. Based on these facts, the activities of biguanide derivatives that inhibit Snail expression, which is a transcription factor inducing EMT in the MCF7 cell line derived from human breast cancer, were measured and simple experimental methods are described, as follows.
MCF7 cells derived from human breast cancer (commercially available from Korean Cell Line Bank) were cultured in a DMEM medium supplemented with 10% (v/v) fetal bovine serum (commercially available from Gibco Life Technologies (US)), put into a 6-well plate so that the number of cultured cells could amount to approximately 5×10^5 cells per well, and then incubated in an incubator supplied with 5% CO2 (culture temperature: 37° C., pH: 7.0 to 7.4). The culture media were treated with phenformin hydrochloride and the compounds synthesized in the examples at contents of 1 μM and 10 μM, respectively, and then incubated for 48 hours. Metformin hydrochloride was used as the control, and the cells were treated with 1 mM and 10 mM metformin hydrochloride. After 48 hours, the cells were lysed in a cell lysis buffer containing 10 mM Tris HCl (pH7.4), 100 mM NaCl, 1 mM EDTA, 1 mM EGTA, 1 mM NaF, 20 mM Na4P2O7, 2 mM Na3VO4, 1% TritonX-100, 10% glycerol, 0.5% deoxycholate and 1 mM PMSF. Then, 25 μg of the cell lysate was electrophoresized in an SDS-PAGE gel, and then transferred to a […] membrane (commercially available from Amersham Life Science). The membrane reacted with rat monoclonal anti-human Snail (commercially available from Cell signaling Technology) or mouse monoclonal anti-β-actin (commercially available from Santa cruz Biotechnology), and unbound antibodies were removed. In this case, anti-β-actin was used as the antibody to ensure that the amount of proteins loaded into the SDS-PAGE gel is identical. The membrane was reacted again with a secondary antibody, anti-rat IgG (commercially available from Cell signaling Technology) or anti-mouse IgG (commercially available from Santa Cruz Biotechnology). Finally, the antibody bound to the membrane was detected using an ECL Plus system (commercially available from Amersham Life Science). Also, the expression level of Snail with respect to β-actin was analyzed using a Scion image analysis program. Here, when it was assumed that the expression level of the untreated control was 100%, the expression level of the Snail by treatment with the compounds synthesized in the examples was indicated as a percentage (%).

| Solubility in water (%), hydrochloride salt [1] | SMILES | Snail Expression Rate (%) (Snail; 1 μM) | Snail Expression Rate (%) (Snail; 10 μM) |
| --- | --- | --- | --- |
| 80% | Cl.N=C(NC(=N)N1CCCC1)Nc1ccc(C(F)(F)F)cc1 [Example 26, N1-pyrrolidine-N5-(4-trifluoromethyl)phenyl biguanide hydrochloride] | 57.2% | 14.6% |
| – | Cl.N=C(NC(=N)N1CCCCCC1)Nc1cccc(Cl)c1 [Example 21, N1-azepane-N5-(3-chloro)phenyl biguanide hydrochloride] | 83.5% | 29.8% |
| 20% | Cl.N=C(NC(=N)N1CCCCC1)Nc1ccc(C(F)(F)F)cc1 [Example 27, N1-piperidine-N5-(4-trifluoromethyl)phenyl biguanide hydrochloride] | 52.7% | 13.2% |
| – | Cl.N=C(NC(=N)N1CCCCC1)Nc1cccc(Cl)c1 [Example 20, N1-piperidine-N5-(3-chloro)phenyl biguanide hydrochloride] | 57.6% | 8.7% |
